The values below are quoted from earlier work in US20240344094A1, “METHODS AND COMPOSITIONS USEFUL FOR THE PRODUCTION OF OLEFINIC ESTER” (THE REGENTS OF THE UNIVERSITY OF CALIFORNIA, priority 2021, published 2024).

With `CC(=O)OCCC(C)C` [isoamyl acetate], where the note is “water”, the “solubility limit in water” value is reported as ~10 g/L. As for `C=C(C)CCO` [Isoprenol, 3-methyl-3-buten-1-ol], for the setting “20° in water”, the solubility in water entry is reported as “about 90 g/L”.
